Experimental data from the NIST ThermoML archive (doi:10.1021/acs.jced.6b00232).

Test: mn = molality of the nth substance listed, in mol/kg
Settings: 84.5 kPa, Liquid; for speed of sound: Frequency=3 MHz, Sing-around technique in a fixed-path interferometer; for mass density: Vibrating tube method

OC[C@H]1O[C@@](CO)(O[C@H]2O[C@H](CO)[C@@H](O)[C@H](O)[C@H]2O)[C@@H](O)[C@@H]1O [D-sucrose] + O
Settings	mass density, 288.15 K [kg/m3]	mass density, 293.15 K [kg/m3]	mass density, 298.15 K [kg/m3]	mass density, 303.15 K [kg/m3]	mass density, 308.15 K [kg/m3]	speed of sound, 288.15 K [m/s]	speed of sound, 293.15 K [m/s]	speed of sound, 298.15 K [m/s]	speed of sound, 303.15 K [m/s]	speed of sound, 308.15 K [m/s]
m1 = 0.09036	1010.86	1009.89	1008.67	1007.22	1005.55	1475.4	1491.1	1504.9	1516.9	1527.3
m1 = 0.1217	1014.83	1013.84	1012.59	1011.12	1009.43	1478.5	1494	1507.7	1519.6	1529.8
m1 = 0.1537	1018.82	1017.8	1016.53	1015.04	1013.34	1481.6	1497	1510.6	1522.3	1532.5
m1 = 0.2538	1030.98	1029.88	1028.55	1027	1025.25	1491.5	1506.4	1519.5	1530.9	1540.7
m1 = 0.3245	1039.25	1038.1	1036.73	1035.14	1033.35	1498.3	1513	1525.8	1537	1546.5
m1 = 0.5156	1060.41	1059.13	1057.64	1055.96	1054.09	1516.8	1530.7	1542.8	1553.2	1562
m1 = 0.729	1082.25	1080.85	1079.25	1077.46	1075.5	1537.3	1550.2	1561.5	1571.1	1579.2
m1 = 0.9736	1105.1	1103.56	1101.84	1099.96	1097.9	1559.9	1571.9	1582.2	1591	1598.4
m1 = 1.252	1128.74	1127.07	1125.24	1123.25	1121.11	1585.2	1596.1	1605.4	1613.3	1619.7
m1 = 1.573	1153.12	1151.33	1149.38	1147.28	1145.06	1613	1622.7	1630.9	1637.7	1643.2
m1 = 1.948	1178.48	1176.55	1174.48	1172.29	1169.98	1643.8	1652.1	1659.1	1664.8	1669.3
